Assay results from article PMC5595280, “Cytotoxicity and anti-tumor effects of new ruthenium complexes on triple negative breast cancer cells” (PLoS ONE, 2017).

Tests used:
MCF-10A cells [1] = experiment: MTT cell proliferation assay; format: cell-based, human; conditions: 24 h of incubation, read-out: IC50 ±SEM MCF-10A
Experimental: (§1) MDA-MB-231 human breast tumor cells and MCF7 human breast tumor cells, obtained from Rio de Janeiro Cell Bank, were maintained at 37°C in 5% CO2 in DMEM medium containing fetal bovine serum (FBS) 10% (Vitrocell). MCF-10A, a non-tumor breast cell line, obtained from Rio de Janeiro Cell Bank, was cultivated in DMEM/F12 medium containing horse serum (HS) 5%, EGF (0.02 mg/mL); hydrocortisone (0.05 mg/mL); cholera toxin (0.001 mg/mL) and insulin (0.01 mg/mL). Both media contained penicillin (100 UI/mL), streptomycin ([…]) and L-glutamine (2 mM).
(§2) Proliferation assays were performed as described earlier. Briefly, cells lines were prepared in a concentration of 1x10^4 cells/100 μL, in complete medium (with 10% FBS), and plated on sterile 96-well plates for 24 h. The culture medium was removed from the wells and a new one, supplemented with 10% FBS and containing different concentrations of (1) [Ru(SO4)(dppb)(bipy)] (2) [Ru(CO3)(dppb)(bipy)], (3), [Ru(C2O4)(dppb)(bipy)], or (4) [Ru(CH3CO2)(dppb)(bipy)]PF6, was added to the wells. Cells were incubated for 24 h under the same conditions as described above. Cell proliferation assay was performed in comparison with untreated control. After incubation, the culture medium of each well was removed and a solution containing MTT (1 mg/mL) was added (100 μL/well). The plates were then kept at 37°C for 4 h and the formed crystals were dissolved in DMSO. The absorbance was read on an ELISA plate reader at a wavelength of 540 nm. […] The selectivity index (SI) was calculated as the ratio IC50 (MCF-10A) / IC50 (MDA-MB-231).
(§3) Each experiment was repeated three times in triplicate and a standard error mean was calculated. Shapiro-Wilk’s test was used to verify data normality. As normal distribution was present, the results were compared statistically with a one-way or two-way analysis of variance (ANOVA). […] The data were analysed and IC50 calculations were made using Hill’s equation in the GraphPad Prism software (version 6.05).

MCF-7 cells [2] = experiment: MTT cell proliferation assay; format: cell-based, human; conditions: 24 h of incubation, read-out: IC50 ±SEM MCF-7
Experimental: as §1, §2, §3

MDA-MB-231 cells [3] = experiment: MTT cell proliferation assay; format: cell-based, human; conditions: 24 h of incubation, read-out: IC50 ±SEM MDA-MB-231
Experimental: as §1, §2, §3

[4] = Water-octanol partition coefficient (stir-flask method); format: physicochemical; conditions: 24 h shaking, 37°C
Experimental: The water-octanol partition coefficients were determined by use of the stir-flask method. The complex was added in a mixture with equal volumes of water and octanol shaking by 24 h at 100 rpm and 37°C, samples were centrifuged for 5min at 300rpm, the organic and aqueous phases were separated. The concentration of drug in each phase was measured spectrophotometrically in order to determine values of P = [drug] (in octanol)/[drug] (in water).

HSA = HSA (Homo sapiens, UniProt P02768); experiment: HSA tryptophan fluorescence quenching; format: binding; conditions: for ΔS (HSA): complex-HSA system
HSA, sequence (P02768 25-609): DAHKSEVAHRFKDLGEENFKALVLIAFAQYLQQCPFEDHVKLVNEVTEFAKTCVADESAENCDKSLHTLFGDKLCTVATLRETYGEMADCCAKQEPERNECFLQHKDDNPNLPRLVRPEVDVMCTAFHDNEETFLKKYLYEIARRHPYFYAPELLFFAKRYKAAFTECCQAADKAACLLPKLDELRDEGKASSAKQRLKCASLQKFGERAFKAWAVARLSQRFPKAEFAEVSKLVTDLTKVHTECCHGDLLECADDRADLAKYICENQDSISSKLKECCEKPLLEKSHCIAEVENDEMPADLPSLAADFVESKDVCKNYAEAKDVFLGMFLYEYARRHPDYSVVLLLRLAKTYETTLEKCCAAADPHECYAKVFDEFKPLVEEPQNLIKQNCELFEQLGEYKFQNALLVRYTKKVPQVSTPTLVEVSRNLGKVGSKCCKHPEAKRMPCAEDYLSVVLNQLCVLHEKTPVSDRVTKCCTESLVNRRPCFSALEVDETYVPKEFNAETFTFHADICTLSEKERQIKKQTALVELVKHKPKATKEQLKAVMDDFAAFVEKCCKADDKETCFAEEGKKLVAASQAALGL
Experimental: For fluorescence measurements, the HSA concentration in Tris–HCl buffer was kept constant in all the samples, while the complex concentration was increased from 0.50 to 50 μM, and quenching of the emission intensity of the HSA tryptophan residues at 305 nm (excitation wavelength 270 nm) was monitored at different temperatures (25°C and 37°C). The experiments were carried out in triplicate and analysed using the classical Stern-Volmer equation. The binding constant (Kb) and number of complexes bound to HSA (n) were determined by plotting the double log graph of the fluorescence data using: log [(F0-F)/F] = log Kb + nlog[Q]. The thermodynamic parameter (ΔH) was calculated from equation: ln (K2/K1) = [(1/T1)-(1/T2)]ΔH/R, where K1 and K2 are the binding constants at temperatures T1 and T2, and R is the gas constant. Furthermore, the change in free energy (ΔG) and entropy (ΔS) were calculated from the following equation: ΔG = -RT lnK = ΔH − TΔS.
Human serum albumin (HSA) is the most abundant protein in the blood and cerebrospinal fluid and plays a fundamental role in the distribution of essential transition metal ions in the human body. Moreover, HSA is an important physiological transporter of the essential metal ions Cu^2+, and Zn^2+ in the bloodstream. […] The fluorescence spectrum is essentially that of tryptophan residue; contribution of tyrosine is relatively minor. In order to determine the protein binding affinity of complexes (1–4), tryptophan emission quenching experiments were carried out by adding the complexes in increasing concentration (0–50 μM) to HSA at two different temperatures and following the decrease in fluorescence intensities (Fig 6D). The results point out a good linearity at the two different temperatures. The binding constants, KSV, calculated from the Stern-Volmer equation are presented on Table 2.

MCF-10A cells [5] = experiment: Cell morphology (inverted microscope); format: cell-based, human; conditions: 24 h; for effect on cell morphology: 25 and 50 μM
Experimental: (§4) Exponentially growing MDA-MB-231, MCF-7 or MCF-10A cells were harvested, counted and seeded (1x10^5 cells/mL) and plated on sterile 12-well plates for 24 h. Cells were allowed to grow at 37°C in 5% CO2 overnight and then, treated or not (control) with different concentrations of the complexes (1–4) for 2 and 24 h. Cell morphology was examined under an inverted microscope (Nikon, T5100) with amplification of 100×.
(§5) In this work the cytotoxicity of the complexes was evaluated against the MDA-MB-231, MCF-7 and MCF-10A cells by morphology, clonogenic and MTT assays (Fig 2, Table 1). To investigate the effects on cell morphology, the complexes were incubated with cells at concentrations of 25 and 50 μM for 24 h.

MCF-7 cells [6] = experiment: Cell morphology (inverted microscope); format: cell-based, human; conditions: MCF-7, 25 and 50 μM, 24 h
Experimental: as §4, §5

MDA-MB-231 cells [7] = experiment: Cell morphology (inverted microscope); format: cell-based, human; conditions: 24 h
Experimental: as §4, §5

DNA = test system: DNA; set-up: method as in not given; conditions: order of magnitude reported for classical intercalators; ref not given; cited from earlier work
pBR322 plasmid DNA = experiment: Agarose gel electrophoresis of plasmid DNA; format: binding; conditions: Ri 0.50, 18 h, 37°C
Experimental: Ten microliters of pBR322 plasmid DNA in a Tris-HCl buffer were incubated at 37°C for 18 h with molar ratios between 0.12 and 0.5. After incubation, 5 μL of each sample was separated by electrophoresis in a 1% agarose gel for 45 min at 100V using a Tris borate–EDTA buffer (TBE) and stained with ethidium bromide ([…] ethidium bromide per 40 mL agarose gel mixture). Samples of DNA with DMSO were used as controls. The DNA bands were visualized as an image using a UV light transilluminator (ChemiDoc MP, BioRad Laboratories).
The influence of the compounds on the tertiary structure of DNA was determined by their ability to modify the electrophoretic mobility of forms of pBR322 plasmid DNA (Fig 6C). Agarose gel electrophoresis was performed using pBR322 plasmid DNA in the absence and presence of the complexes. […] In Ri 0.12 and 0.25 complexes (1–3) show the corresponding open circular, linear and super coiled form. […] This means that the degree of super helicity of the DNA molecules has been altered, in the same way as that described previously for other coordination platinum(II) and palladium (II) compounds containing 7-azaindolyl ligand [36].

Row | Compound | IC50 (MCF-10A cells [1]) [µM] | IC50 (MCF-7 cells [2]) [µM] | IC50 (MDA-MB-231 cells [3]) [µM] | Log P [4] | Kq (HSA) (HSA; T 298) [M⁻¹ s⁻¹] | Ksv (HSA) (HSA; T 298) | n (number of binding sites, HSA) (HSA; T 298) | Kq (HSA) (HSA; T 310) [M⁻¹ s⁻¹] | Ksv (HSA) (HSA; T 310) | n (number of binding sites, HSA) (HSA; T 310) | ΔS (HSA) (HSA) [J.mol^-1K] | effect on cell morphology (MCF-10A cells [5]) | effect on cell morphology (MCF-7 cells [6]) | effect on cell morphology (MDA-MB-231 cells [7]; MDA-MB-231, 25 and 50 μM) | effect on cell morphology / cell density (MCF-10A cells [5]; 50 μM) | DNA binding constant (DNA) | effect on cell morphology (MDA-MB-231 cells [7]; MDA-MB-231, 50 μM) | electrophoretic mobility of super coiled pBR322 band (pBR322 plasmid DNA)
1 | N.N.[Cl][Pt][Cl] [Cisplatin, reference compound] | 29.4 ± 0.85 | 79.18 ± 0.2 | 2.43 ± 0.2 |  |  |  |  |  |  |  |  |  |  |  |  |  |  | 
2 | O=S(=O)([O-])[O-].[Ru+2].c1ccc(-c2ccccn2)nc1.c1ccc(P(CCCCP(c2ccccc2)c2ccccc2)c2ccccc2)cc1 [Complex (1), [Ru(SO4)(dppb)(bipy)]] | 42.8 ± 5.02 | > 200 | > 200 | 0.26 ± 0.06 | 5.26e+13 | 5.04 ± 0.09 x10^4 M^-1 | 1.10 | 4.65e+13 | 4.45 ± 0.18 x10^4 M^-1 | 1.06 | 72.70 | altered the morphology | did not alter the morphology | did not alter the morphology |  |  |  | 
3 | O=C([O-])C(=O)[O-].[Ru+2].c1ccc(-c2ccccn2)nc1.c1ccc(P(CCCCP(c2ccccc2)c2ccccc2)c2ccccc2)cc1 [Complex (3), [Ru(C2O4)(dppb)(bipy)]] | 42.2 ± 2.37 | > 200 | > 200 | 0.06 ± 0.008 | 1.63e+13 | 1.56 ± 0.13 x10^4 M^-1 | 0.90 | 1.702e+13 | 1.63 ± 0.10 x10^4 M^-1 | 0.85 | 80.00 |  | did not alter the morphology | did not alter the morphology | reduced cell density |  |  | 
4 | [Cl-].[Cl-].[Ru+2].c1ccc(-c2ccccn2)nc1.c1ccc(P(CCCCP(c2ccccc2)c2ccccc2)c2ccccc2)cc1 [Precursor, cis-[RuCl2(dppb)(bipy)], reference compound] | 81.9 ± 7.87 | > 200 | > 200 | -0.40 ± 0.01 |  |  |  |  |  |  |  |  |  |  |  |  |  | 
5 | CC[n+]1c(-c2ccccc2)c2cc(N)ccc2c2ccc(N)cc21 [ethidium bromide] |  |  |  |  |  |  |  |  |  |  |  |  |  |  |  | 10^6 to 10^7 M^-1 |  | 
6 | [Ru(CO3)(dppb)(bipy)] [Complex (2)] | 31.5 ± 1.06 | > 200 | 52.7 ± 0.62 | 0.55 ± 0.02 | 2.935e+13 | 2.81 ± 0.12 x10^4 M^-1 | 1.00 | 3.425e+13 | 3.28 ± 0.14 x10^4 M^-1 | 0.98 | 85.80 | did not alter the morphology | did not alter the morphology |  |  |  | profoundly altered their morphology | increased the electrophoretic mobility
7 | [Ru(phen)2(dppz)]^2+ |  |  |  |  |  |  |  |  |  |  |  |  |  |  |  | 10^6 to 10^7 M^-1 |  | 
